Laboratory results taken from US20220002279A1, “NOVEL IMIDAZOLE DERIVATIVE” (priority 2018, published 2022).
Converted amounts (≈) assume the structure as drawn.

Experiments:
Assay in all cases: Antimicrobial activity, MIC by broth microdilution
Assay type in all cases: cell-based
[1] = test system: Pseudomonas aeruginosa strain ATCC27853; details: ATCC27853, 18 h, cation-adjusted Mueller-Hinton broth, about 5×10^5 CFU/mL, 35° C., about 18 hours, read-out: MIC Pseudomonas aeruginosa ATCC27853
From the text: (§1) Test Example 4 Evaluation of the Antimicrobial Activity
(§2) For minimum inhibitory concentration (MIC) measurement, the following broth microdilution method was applied as adapted from the standard procedure recommended by the CLSI (Clinical and Laboratory Standards Institute).
(§3) The bacteria used were Pseudomonas aeruginosa strain ATCC27853, Escherichia coli strain ATCC25922, and Klebsiella pneumoniae strain ATCC13883. After culture overnight on a heart infusion agar medium, the cells of a test bacterium were scraped off, and a bacterial solution suspended to have a turbidity of level 0.5 on the McFarland scale was diluted and used as an inoculum solution. The inoculum solution was inoculated in a cation-adjusted Mueller-Hinton broth medium containing a test compound so that the final inoculation concentration was about 5×10^5 CFU/mL, and cultured at 35° C. for about 18 hours. A minimum drug concentration at which no cell growth was visible to the naked eye was designated as MIC. […] In the table, ND represents the case where suppression of the cell growth in a drug concentration-dependent manner was not observed (Not Determined), and NT represents that no test was conducted (Not Tested).

[2] = test system: Klebsiella pneumoniae strain ATCC13883; details: ATCC13883, cation-adjusted Mueller-Hinton broth, about 5×10^5 CFU/mL, 35° C., about 18 hours, read-out: MIC Klebsiella pneumoniae ATCC13883
From the text: as §1, §2, §3

[3] = test system: Escherichia coli strain ATCC25922; details: ATCC25922, 18 h, cation-adjusted Mueller-Hinton broth, about 5×10^5 CFU/mL, 35° C., about 18 hours, read-out: MIC Escherichia coli ATCC25922
From the text: as §1, §2, §3

Row | Compound | MIC [1] | MIC [2] | MIC [3]
1 | C[C@H](O)c1nccn1[C@H](CN)c1cc(-c2ccc(C#C[C@@H]3[C@H]4CN(CCCO)C[C@@H]34)cc2)on1 [Compound 132, 3-{(1R,5S,6s)-6-[(4-{3-[(1R)-2-amino-1-{2-[(1S)-1-hydroxyethyl]-1H-imidazol-1-yl}ethyl]-1,2-oxazol-5-yl}phenyl)ethynyl]-3-azabicyclo[3.1.0]hexan-3-yl) propan-1-ol] | 2 µg/mL (≈ 4.33 µM) | 8 µg/mL (≈ 17.3 µM) | 8 µg/mL (≈ 17.3 µM)
2 | C[C@H](O)c1nccn1[C@H](CN)c1cc(-c2ccc(C#C[C@H]3C[C@H](NC4COC4)C3)cc2)on1 [Compound 133, (1S)-1-{1-[(1R)-2-amino-1-{5-[4-({trans-3-[(oxetan-3-yl)amino]cyclobutyl}ethynyl)phenyl]-1,2-oxazol-3-yl}ethyl]-1H-imidazol-2-yl} ethan-1-ol] | 8 µg/mL (≈ 17.9 µM) | 4 µg/mL (≈ 8.94 µM) | 1 µg/mL (≈ 2.23 µM)
3 | C[C@H](O)c1nccn1[C@H](CN)c1cc(-c2ccc(C#CC3C4COCC34)cc2)on1 (stereo partly drawn) [Compound 58, (1S)-1-{1-[(1R)-2-amino-1-(5-{4-[(3-oxabicyclo[3.1.0]hexan-6-yl)ethynyl]phenyl}-1,2-oxazol-3-yl)ethyl]-1H-imidazol-2-yl} ethan-1-ol] | 8 µg/mL (≈ 19.8 µM) |  | 
4 | C[C@H](O)c1nccn1[C@H](CN)c1cc(-c2ccc(C#C[C@H]3C[C@H](NC=O)C3)cc2)on1 [Compound 106, N-{trans-3-[(4-{3-[(1R)-2-amino-1-(2-[(1S)-1-hydroxyethyl]-1H-imidazol-1-yl}ethyl]-1,2-oxazol-5-yl}phenyl)ethynyl]cyclobutyl}formamide] | 8 µg/mL (≈ 19.1 µM) | 4 µg/mL (≈ 9.54 µM) | 2 µg/mL (≈ 4.77 µM)
5 | C[C@H](O)c1nccn1[C@H](CN)c1cc(-c2ccc(C#C[C@H]3C[C@@](O)(CO)C3)cc2)on1 [Compound 89, trans-3-[(4-(3-[(1R)-2-Amino-1-{2-[(1S)-1-hydroxyethyl]-1H-imidazol-1-yl}ethyl]-1,2-oxazol-5-yl}phenyl)ethynyl]-1-(hydroxymethyl)cyclobutan-1-ol] | 4 µg/mL (≈ 9.47 µM) | 8 µg/mL (≈ 18.9 µM) | 2 µg/mL (≈ 4.73 µM)
6 | C[C@H](O)c1nccn1[C@H](CN)c1cc(-c2ccc(C#C[C@H]3C[C@@H](O)C3)cc2)on1 [Compound 125, cis-3-[(4-{3-[(1R)-2-amino-1-{2-[(1S)-1-hydroxyethyl]-1H-imidazol-1-yl}ethyl]-1,2-oxazol-5-yl}phenyl)ethynyl]cyclobutan-1-ol] | 8 µg/mL (≈ 20.4 µM) | 2 µg/mL (≈ 5.1 µM) | 2 µg/mL (≈ 5.1 µM)
7 | C[C@H](O)c1nccn1Cc1cc(-c2ccc(C#C[C@H]3C[C@H](NC4COC4)C3)cc2)on1 [Compound 135, (S)-1-(1-((5-(4-(((1r,3S)-3-(oxetan-3-ylamino)cyclobutyl)ethynyl)phenyl)isoxazol-3-yl)methyl)-1H-imidazol-2-yl)ethanol] | 32 µg/mL (≈ 76.5 µM) | 2 µg/mL (≈ 4.78 µM) | 0.5 µg/mL (≈ 1.19 µM)
8 | CC(=O)N[C@H]1C[C@H](C#Cc2ccc(-c3cc([C@@H](CN)n4ccnc4[C@H](C)O)no3)cc2)C1 [Compound 115, N-{trans-3-[(4-{3-[(1R)-2-amino-1-{2-[(1S)-1-hydroxyethyl]-1H-imidazol-1-yl}ethyl]-1,2-oxazol-5-yl}phenyl)ethynyl]cyclobutyl} acetamide] | 16 µg/mL (≈ 36.9 µM) | 8 µg/mL (≈ 18.5 µM) | 4 µg/mL (≈ 9.23 µM)
9 | C[C@H](O)c1nccn1[C@H](CN)c1cc(-c2ccc(C#C[C@H]3CC3C(=O)O)cc2)on1 (stereo partly drawn) [Compound 126, trans-2-[(4-{3-[(1R)-2-amino-1-{2-[(1S)-1-hydroxyethyl]-1H-imidazol-1-yl}ethyl]-1,2-oxazol-5-yl}phenyl)ethynyl]cyclopropane-1-carboxylate] | 16 µg/mL (≈ 39.4 µM) | 64 µg/mL (≈ 157 µM) | 16 µg/mL (≈ 39.4 µM)
10 | C[C@H](O)c1nccn1Cc1cc(-c2ccc(C#CCN)cc2)on1 [Compound 30, (1S)-1-[l-({5-[4-(3-aminoprop-1-yn-1-yl)phenyl]-1,2-oxazol-3-yl}methyl)-1H-imidazol-2-yl]ethan-1-ol] | 64 µg/mL (≈ 199 µM) | > 128 µg/mL | 64 µg/mL (≈ 199 µM)
11 | C[C@H](O)c1nccn1Cc1cc(-c2ccc(C#C[C@@H]3[C@H]4CN(CCCC(=O)O)C[C@@H]34)cc2)on1 [Compound 67, 4-[(1R,5S,6s)-6-({4-[3-({2-[(1S)-1-Hydroxyethyl]-1H-imidazol-1-yl}methyl)-1,2-oxazol-5-yl]phenyl}ethynyl)-3-azabicyclo[3.1.0]hexan-3-yl]butanoic acid] | 8 µg/mL (≈ 17.4 µM) | 4 µg/mL (≈ 8.69 µM) | 2 µg/mL (≈ 4.34 µM)
12 | CC(O)CN1C[C@@H]2[C@@H](C#Cc3ccc(-c4cc([C@@H](CN)n5ccnc5[C@H](C)O)no4)cc3)[C@@H]2C1 (stereo partly drawn) [Compound 120, 1-{(1R,5S,6s)-6-[(4-{3-[(1R)-2-amino-1-{2-[(1S)-1-hydroxyethyl]-1H-imidazol-1-yl}ethyl]-1,2-oxazol-5-yl}phenyl)ethynyl]-3-azabicyclo[3.1.0]hexan-3-yl}propan-2-ol] | 2 µg/mL (≈ 4.33 µM) | 2 µg/mL (≈ 4.33 µM) | 1 µg/mL (≈ 2.17 µM)
13 | C[C@H](O)CN1C[C@@H]2[C@@H](C#Cc3ccc(-c4cc([C@@H](CN)n5ccnc5[C@H](C)O)no4)cc3)[C@@H]2C1 [Compound 136, (S)-1-((1R,5S,6R)-6-((4-(3-((R)-2-amino-1-(2-((S)-1-hydroxyethyl)-1H-imidazol-1-yl)ethyl)isoxazol-5-yl)phenyl)ethynyl)-3-azabicyclo[3.1.0]hexan-3-yl)propan-2-ol] | 2 µg/mL (≈ 4.33 µM) | 4 µg/mL (≈ 8.67 µM) | 1 µg/mL (≈ 2.17 µM)
14 | C[C@H](O)c1nccn1[C@H](CN)c1cc(-c2ccc(C#CC3CCOC3)cc2)on1 (stereo partly drawn) [Compound 75, (1S)-1-{1-[(1R)-2-amino-1-(5-{4-[(oxolan-3-yl)ethynyl]phenyl}-1,2-oxazol-3-yl)ethyl]-1H-imidazol-2-yl} ethan-1-ol] | 64 µg/mL (≈ 163 µM) | 2 µg/mL (≈ 5.1 µM) | 0.25 µg/mL (≈ 0.637 µM)
15 | C[C@H](O)c1nccn1[C@H](CN)c1cc(-c2ccc(C#CC3CC3(CO)CO)cc2)on1 (stereo partly drawn) [Compound 131, (1S)-1-(1-{(1R)-2-amino-1-[5-(4-{[2,2-bis(hydroxymethyl)cyclopropyl]ethynyl}phenyl)-1,2-oxazol-3-yl]ethyl}-1H-imidazol-2-yl)ethan-1-ol] | 16 µg/mL (≈ 37.9 µM) | 32 µg/mL (≈ 75.7 µM) | 8 µg/mL (≈ 18.9 µM)
16 | C[C@H](O)c1nccn1[C@H](CN)c1cc(-c2ccc(C#CC3CC3)cc2)on1 [Compound 60, (1S)-1-{1-[(1R)-2-amino-1-(5-[4-(cyclopropylethynyl)phenyl]-1,2-oxazol-3-yl}ethyl]-1H-imidazol-2-yl}ethan-1-ol] | 8 µg/mL (≈ 22.1 µM) | 0.25 µg/mL (≈ 0.69 µM) | 0.25 µg/mL (≈ 0.69 µM)
17 | CNC[C@H](c1cc(-c2ccc(C#C[C@@H]3[C@H]4CN(CCO)C[C@@H]34)cc2)on1)n1ccnc1[C@H](C)O [Compound 38, (1S)-1-{1-[(1R)-1-[5-(4-{[(1R,5S,6s)-3-(2-Hydroxyethyl)-3-azabicyclo[3.1.0]hexan-6-yl]ethynyl}phenyl)-1,2-oxazol-3-yl]-2-(methylamino)ethyl]-1H-imidazol-2-yl}ethan-1-ol] | 4 µg/mL (≈ 8.67 µM) |  | 2 µg/mL (≈ 4.33 µM)
18 | C[C@H](O)c1nccn1[C@H](CN)c1cc(-c2ccc(C#C[C@H]3C[C@H](O)C3)cc2)no1 [Compound 100, trans-3-[(4-{5-[(1R)-2-amino-1-{2-[(1S)-1-hydroxyethyl]-1H-imidazol-1-yl}ethyl]-1,2-oxazol-3-yl}phenyl)ethynyl]cyclobutan-1-ol] |  | 4 µg/mL (≈ 10.2 µM) | 
19 | C[C@H](O)c1nccn1[C@H](CN)c1cc(-c2ccc(C#C[C@@H]3[C@H]4CN(C[C@@H](C)O)C[C@@H]34)cc2)on1 [Compound 137, (R)-1-((1R,5S,6R)-6-((4-(3-((R)-2-amino-1-(2-((S)-1-hydroxyethyl)-1H-imidazol-1-yl)ethyl)isoxazol-5-yl)phenyl)ethynyl)-3-azabicyclo[3.1.0]hexan-3-yl)propan-2-ol] | 4 µg/mL (≈ 8.67 µM) | 4 µg/mL (≈ 8.67 µM) | 
20 | C[C@H](O)c1nccn1[C@H](CN)c1cc(-c2ccc(C#CC3CC(C(=O)O)C3)cc2)on1 (stereo partly drawn) [Compound 130, 3-[(4-{3-{(1R)-2-amino-1-(2-[(1S)-1-hydroxyethyl]-1H-imidazol-1-yl}ethyl]-1,2-oxazol-5-yl}phenyl)ethynyl]cyclobutane-1-carboxylate] | 8 µg/mL (≈ 19 µM) | 32 µg/mL (≈ 76.1 µM) | 
21 | CC(=O)N1C[C@@H]2[C@@H](C#Cc3ccc(-c4cc([C@@H](CN)n5ccnc5[C@H](C)O)no4)cc3)[C@@H]2C1 [Compound 91, 1-{(1R,5S,6s)-6-[(4-{3-[(1R)-2-Amino-1-{2-[(1S)-1-hydroxyethyl]-1H-imidazol-1-yl}ethyl]-1,2-oxazol-5-yl}phenyl)ethynyl]-3-azabicyclo[3.1.0]hexan-3-yl}ethan-1-one] | 32 µg/mL (≈ 71.8 µM) | 8 µg/mL (≈ 18 µM) | 
22 | C[C@H](O)c1nccn1[C@H](CN)c1cc(-c2ccc(C#C[C@H]3C[C@H](NCCO)C3)cc2)on1 [Compound 134, (1S)-1-{1-[(1R)-2-amino-1-{5-[4-({trans-3-[(2-hydroxyethyl)amino]cyclobutyl}ethynyl)phenyl]-1,2-oxazol-3-yl}ethyl]-1H-imidazol-2-yl}ethan-1-ol] | 4 µg/mL (≈ 9.18 µM) | 32 µg/mL (≈ 73.5 µM) | 
